Experiments:
[1] = biological target: T1, Tyrosine-protein phosphatase non-receptor type 1 (Homo sapiens, UniProt P18031); assay: Inhibition of human recombinant PTP1B assessed as inhibition of hydrolysis of […] after 10 mins by spectrophotometry
T1 sequence (P18031 whole entry): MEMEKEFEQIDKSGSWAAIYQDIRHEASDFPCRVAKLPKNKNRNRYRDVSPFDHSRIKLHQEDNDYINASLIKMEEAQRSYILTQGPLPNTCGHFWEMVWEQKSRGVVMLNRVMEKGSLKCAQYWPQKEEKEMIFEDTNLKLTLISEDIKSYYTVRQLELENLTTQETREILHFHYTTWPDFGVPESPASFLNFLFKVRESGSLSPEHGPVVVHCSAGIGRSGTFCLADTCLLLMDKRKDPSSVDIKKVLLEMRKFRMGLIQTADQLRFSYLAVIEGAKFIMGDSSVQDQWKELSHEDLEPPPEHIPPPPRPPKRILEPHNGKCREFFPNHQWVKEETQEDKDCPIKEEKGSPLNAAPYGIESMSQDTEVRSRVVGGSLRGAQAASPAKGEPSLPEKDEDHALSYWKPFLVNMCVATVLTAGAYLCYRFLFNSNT

[2] = biological target: T2, Tyrosine-protein phosphatase non-receptor type 2 (Homo sapiens, UniProt P17706); assay: Inhibition of human recombinant TCPTP assessed as inhibition of hydrolysis of […] after 10 mins by spectrophotometry
T2 sequence (P17706 whole entry): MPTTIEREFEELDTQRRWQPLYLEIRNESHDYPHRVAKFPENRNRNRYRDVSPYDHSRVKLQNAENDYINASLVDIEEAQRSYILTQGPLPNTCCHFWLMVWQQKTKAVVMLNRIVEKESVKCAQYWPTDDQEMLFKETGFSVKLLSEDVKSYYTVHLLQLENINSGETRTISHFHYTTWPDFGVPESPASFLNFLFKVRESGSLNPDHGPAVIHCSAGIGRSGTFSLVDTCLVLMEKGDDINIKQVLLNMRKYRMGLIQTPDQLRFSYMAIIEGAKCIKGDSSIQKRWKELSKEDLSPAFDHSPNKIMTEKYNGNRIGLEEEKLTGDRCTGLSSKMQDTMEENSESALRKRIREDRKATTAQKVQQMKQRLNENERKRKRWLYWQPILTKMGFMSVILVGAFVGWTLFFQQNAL

Homo sapiens = species: Homo sapiens; assay: Selectivity ratio of IC50 for human recombinant TCPT to IC50 for human recombinant PTP1B
COS-7 = assay: Cytotoxicity against african green monkey COS7 cells after 48 hrs by MTT assay; type: cell-based; conditions: Chlorocebus aethiops, COS-7, 48 h

Row | SMILES | IC50 [1] | IC50 [2] | Ratio IC50 (Homo sapiens) | IC50 (COS-7)
1 | CCOS(=O)(=O)/C=C/c1ccc(OCCCCNc2nc(-c3ccccc3)c(C)s2)c(OC)c1 | 15.1 µM | > 100 µM |  | 
2 | CCOS(=O)(=O)/C=C/c1ccc(OCCCCNc2nc(-c3cccc(OC)c3)cs2)cc1 | 2 µM | 8.2 µM | 2 | 
3 | CCOS(=O)(=O)/C=C/c1ccc(OCCCCNc2nc(-c3ccc(F)cc3)cs2)cc1 | 1.3 µM | 14.1 µM | 2 | 
4 | CCOS(=O)(=O)/C=C/c1ccc(OCCCCNc2nc(-c3cccs3)cs2)cc1 | 8.6 µM | 11.2 µM | 2 | 
5 | CCOS(=O)(=O)/C=C/c1ccc(OCc2ccccc2)cc1OCCc1csc(-c2ccccc2)n1 | 38.4 µM | 41.2 µM |  | > 100 µM
6 | CCOS(=O)(=O)/C=C/c1ccc(OCCCCNc2nc(-c3ccc(-c4ccccc4)cc3)cs2)cc1 | 1.9 µM | 15.7 µM | 2 | 
7 | CCOS(=O)(=O)/C=C/c1ccc(OCCCCNc2nc(-c3ccccc3)c(-c3ccccc3)s2)cc1 | 9.6 µM | 23.4 µM |  | 
8 | CCOS(=O)(=O)/C=C/c1ccc(OCCCCNc2nc(-c3ccc(OC)cc3)cs2)cc1 | 10.4 µM | > 100 µM | 2 | 
9 | CCOS(=O)(=O)/C=C/c1ccc(OC)c(OCCCCNc2nc(-c3ccccc3)c(C)s2)c1 | 9.7 µM | 15.6 µM | 2 | 
10 | CCOS(=O)(=O)/C=C/c1ccc(OCCCCNc2nc(-c3ccccc3)c(C)s2)cc1 | 5.8 µM | 10.6 µM |  | 
11 | CCCCOS(=O)(=O)/C=C/c1ccc(OCc2ccccc2)cc1OCCc1nc(-c2ccccc2)oc1C | > 100 µM | > 100 µM |  | > 100 µM
12 | CCOS(=O)(=O)/C=C/c1ccc(OCCCNc2nc(-c3ccccc3)cs2)cc1 | 24.8 µM | 29.5 µM |  | > 100 µM
13 | CCOS(=O)(=O)/C=C/Cc1nc(-c2ccccc2)sc1C | > 100 µM | > 100 µM |  | > 100 µM
14 | CCOS(=O)(=O)/C=C/c1ccc(OCCCCNc2nc(-c3ccccn3)cs2)cc1 | 1.5 µM | 31.9 µM | 2 | 
15 | COC(=O)/C=C/c1ccc(/C=C/c2ccc(O)c(O)c2)cc1 | > 14.9 µM |  |  | 
16 | CCCCOS(=O)(=O)/C=C/c1ccc(OCCc2csc(-c3ccccc3)n2)cc1 | > 100 µM | > 100 µM |  | > 100 µM
17 | CCOS(=O)(=O)/C=C/c1ccc(OCCc2nc(-c3ccccc3)oc2C)cc1 | > 100 µM | > 100 µM |  | 84.1 µM

Row | SMILES | IC50 [1] | IC50 [2] | Ratio IC50 (Homo sapiens) | IC50 (COS-7)
18 | CCOS(=O)(=O)/C=C/c1ccc(OCCCCNc2nc(-c3ccccc3)cs2)cc1 | 22 µM | 26.2 µM |  | > 100 µM
19 | CCOS(=O)(=O)/C=C/c1ccc(OCCNc2nc(-c3ccccc3)cs2)cc1 | > 100 µM | > 100 µM |  | > 100 µM
20 | COS(=O)(=O)/C=C/c1ccc(OCc2ccccc2)cc1OCCc1nc(-c2ccccc2)oc1C | 24.5 µM | 39.6 µM |  | > 100 µM
21 | CCOS(=O)(=O)/C=C/c1ccc(OCc2cc(-c3ccccc3)on2)cc1 | > 100 µM | > 100 µM |  | > 100 µM
22 | CCOS(=O)(=O)/C=C/c1ccc(OCCCCNc2nc(-c3cccc4ccccc34)cs2)cc1 | 2.4 µM | 8.7 µM | 2 | 
23 | CCOS(=O)(=O)/C=C/c1ccc(OCCCCNc2nc(-c3ccccc3Cl)cs2)cc1 | 1.4 µM | 5 µM | 2 | 
24 | CCOS(=O)(=O)/C=C/c1ccc(OCCCCNc2nc(-c3ccc(Br)cc3)cs2)cc1 | 1.3 µM | 3.6 µM | 2 | 
25 | CCOS(=O)(=O)/C=C/c1ccc(OCc2ccccc2)cc1OCCc1nc(-c2ccccc2)sc1C | > 100 µM | > 100 µM |  | > 100 µM
26 | CCOc1ccc(-c2cc(COc3ccc(/C=C/S(=O)(=O)OCC)cc3)no2)cc1 | 44.4 µM | > 100 µM |  | > 100 µM
27 | CCOS(=O)(=O)/C=C/c1ccc(OCCCCNc2nc(-c3ccccc3)c(-c3ccccc3)s2)c(OC)c1 | 2.6 µM | 8.6 µM |  | 
28 | CCOS(=O)(=O)/C=C/c1ccc(OC)c(OCCCCNc2nc(-c3ccccc3)cs2)c1 | 3.3 µM | 5.7 µM | 2 | 
29 | O=S(=O)(O)C(F)(F)c1ccc(-c2cccc(F)c2)cc1 | 5 µM |  |  | 
30 | CCOS(=O)(=O)/C=C/c1ccc(OC)c(OCCCCNc2nc(-c3ccccc3)c(-c3ccccc3)s2)c1 | 5.1 µM | 11.6 µM | 2 | 
31 | CCCCOS(=O)(=O)/C=C/c1ccc(OCCc2nc(-c3ccccc3)oc2C)cc1 | > 100 µM | > 100 µM |  | > 100 µM
32 | CCOS(=O)(=O)/C=C/c1ccc(OCCCCNc2nc(-c3ccccc3F)cs2)cc1 | 2.5 µM | 6.4 µM | 2 | 
33 | CCOS(=O)(=O)/C=C/c1ccc(OCc2ccccc2)cc1OCCc1nc(-c2ccccc2)oc1C | > 100 µM | > 100 µM |  | > 100 µM

— ChEMBL document CHEMBL2086338, “Design, synthesis, and evaluation of 2-substituted ethenesulfonic acid ester derivatives as protein tyrosine phosphatase 1B inhibitors” (Eur J Med Chem, 2012)
